Assay [1] addresses T1, Human Thyroid Hormone Receptor β1 (TRβ1) (Homo sapiens, UniProt P10828).
T1 construct: expressed in transfected cells; host or cells: 293T cells
T1 sequence (P10828 1-461): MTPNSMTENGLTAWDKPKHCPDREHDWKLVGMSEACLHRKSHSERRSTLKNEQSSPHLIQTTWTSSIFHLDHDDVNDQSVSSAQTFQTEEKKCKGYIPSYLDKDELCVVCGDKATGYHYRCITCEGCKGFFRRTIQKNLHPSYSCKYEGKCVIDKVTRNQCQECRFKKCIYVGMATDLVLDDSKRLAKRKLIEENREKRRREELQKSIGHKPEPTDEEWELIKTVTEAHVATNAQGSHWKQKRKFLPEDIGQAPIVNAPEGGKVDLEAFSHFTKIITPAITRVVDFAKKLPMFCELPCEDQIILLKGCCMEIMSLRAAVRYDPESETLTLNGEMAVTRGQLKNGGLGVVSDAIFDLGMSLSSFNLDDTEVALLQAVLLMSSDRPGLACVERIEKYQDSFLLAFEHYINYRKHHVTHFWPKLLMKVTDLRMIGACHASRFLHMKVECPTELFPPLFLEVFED
Briefly: Transcription activation test of human thyroid hormone receptor β1 (luciferase reporter in 293T cells). The assay is classed as cell-based. The conditions noted are these: EC50 of transcription activation on TRβ1, 293T cells, luciferase activity after 24 hr; read-out: TRβ. An excerpt:
(§1) Transcription Activation Test of Human Thyroid Hormone Receptors α1 (TRα1) and β1 (TRβ1)
(§2) pcDNA3.1 vector (manufactured by Invitrogen) that expresses TRα1 or β1 cloned from human liver-derived cells, and firefly luciferase expression vector pDR4-LuC (manufactured by Stratagene) having a thyroid hormone response sequence to be a reporter were transfected into 293T cells cultured in Dulbecco's modified Eagle medium (DMEM) containing 10% of activated carbon/dextran-treated fetal bovine serum (FBS) by using Lipofectamine2000 (manufactured by Invitrogen). After 16 hr, the cells were plated again in a 96 well plate, and the medium was exchanged with DMEM containing 0.1% activated carbon/dextran-treated FBS. After 3 more hr, a compound diluted with dimethyl sulfoxide solution was added, and the luciferase activity after 24 hr was measured.
(§3) As a positive control, 3,3′,5-triiodo-L-thyronine (T3), which is a biological ligand, was used. The transcription activation action of the compound on TRα1 and TRβ1 was shown by each EC50 value and the maximum luciferase activity value relative to the maximum luciferase activity value of T3 as 100.

Assay [2] deals with T2, Human Thyroid Hormone Receptor α1 (TRα1) (Homo sapiens, UniProt P10827).
T2 construct: expressed in transfected cells; host or cells: 293T cells
T2 sequence (P10827 1-410 isoform P10827-2): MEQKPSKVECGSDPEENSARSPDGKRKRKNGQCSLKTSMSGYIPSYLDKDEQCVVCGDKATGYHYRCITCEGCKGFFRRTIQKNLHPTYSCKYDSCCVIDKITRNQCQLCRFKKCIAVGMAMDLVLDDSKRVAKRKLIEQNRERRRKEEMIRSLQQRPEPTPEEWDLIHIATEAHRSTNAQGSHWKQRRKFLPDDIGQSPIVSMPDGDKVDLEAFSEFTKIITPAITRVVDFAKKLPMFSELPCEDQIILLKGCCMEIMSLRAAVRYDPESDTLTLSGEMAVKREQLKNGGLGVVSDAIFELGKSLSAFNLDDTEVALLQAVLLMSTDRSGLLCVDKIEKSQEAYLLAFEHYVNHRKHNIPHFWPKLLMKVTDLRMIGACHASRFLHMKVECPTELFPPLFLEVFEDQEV
Briefly: Transcription activation test of human thyroid hormone receptor α1 (luciferase reporter in 293T cells). The conditions noted are these: ratio TRα/TRβ of the transcription activation EC50 values. The assay is classed as cell-based.
Excerpt: as §1, §2, §3
A general note: A reporter such as luciferase makes a cellular process visible.

SMILES strings stand for the structures.

As to `Cc1cc(OCc2noc(=O)[nH]2)c(F)c(C)c1Cc1ccc(O)c(-c2cccc(N3CCCC3)c2)n1` [Example 206, 3-[(2-fluoro-4-{[5-hydroxy-6-(3-pyrrolidin-1-ylphenyl)pyridin-2-yl]methyl}-3,5-dimethylphenoxy)methyl]-1,2,4-oxadiazol-5(4H)-one], the EC50 in assay [1] is 3 nM. Moreover, the “selectivity (TRα/TRβ)” value in assay [2] is “A (5<(TRα/TRβ))”.
Taken in the same sequence, the figures for `Cc1cc(NC(=O)CC(=O)O)cc(C)c1Cc1ccc(O)c(C2CCCCC2)n1` [Example 23, 3-({4-[(6-cyclohexyl-5-hydroxypyridin-2-yl)methyl]-3,5-dimethylphenyl}amino)-3-oxopropanoic acid] were 10 nM and “A (5<(TRα/TRβ))”.
With `Cc1cc(OC(C)C(=O)O)c(C)c(C)c1Cc1ccc(O)c(C2CCCCC2)n1` (stereo not shown) [Example 15, 2-{4-[(6-cyclohexyl-5-hydroxypyridin-2-yl)methyl]-2,3,5-trimethylphenoxy}propanoic acid], the EC50 in assay [1] was determined as 9 nM. Besides, in assay [2], the “selectivity (TRα/TRβ)” value is “B (2<(TRα/TRβ)<5)”.
Taken in the same sequence, the figures for `Cc1cc(OCC(=O)O)c(F)c(C)c1Cc1ccc(O)c(C(C)C)n1` [Example 11, {2-fluoro-4-[(5-hydroxy-6-isopropylpyridin-2-yl)methyl]-3,5-dimethylphenoxy}acetic acid] were 1 nM and “B (2<(TRα/TRβ)<5)”.
The like results for `Cc1cc(OCc2noc(=O)[nH]2)c2c(c1Cc1ccc(O)c(C3CCCCC3)n1)CCO2` [Example 117, 3-[({4-[(6-cyclohexyl-5-hydroxypyridin-2-yl)methyl]-5-methyl-2,3-dihydro-1-benzofuran-7-yl}oxy)methyl]-1,2,4-oxadiazol-5(4H)-one] were, in that order, 2 nM and “B (2<(TRα/TRβ)<5)”.
The like results for `Cc1cc(OCC(=O)O)c(C)c(C)c1Cc1ccc(O)c(C2CCCCO2)n1` (stereo not shown) [Example 8, (4-{[5-hydroxy-6-(tetrahydro-2H-pyran-2-yl)pyridin-2-yl]methyl}-2,3,5-trimethylphenoxy)acetic acid] were, in that order, 50 nM and “A (5<(TRα/TRβ))”.
As to `O=C(O)COc1cc(Br)c(Cc2ccc(O)c(-c3ccccc3)n2)c(Br)c1F` [Example 256, [3,5-dibromo-2-fluoro-4-(5-hydroxy-6-phenyl-pyridin-2-ylmethyl)-phenoxy]acetic acid], the EC50 in assay [1] was found to be 3 nM. In addition, the “selectivity (TRα/TRβ)” value in assay [2] is “A (5<(TRα/TRβ))”.
Taken in the same sequence, the figures for `Cc1cc(C(=O)NCC(=O)O)cc(C)c1Cc1ccc(O)c(C2CCCCC2)n1` [Example 64, N-{4-[(6-cyclohexyl-5-hydroxypyridin-2-yl)methyl]-3,5-dimethylbenzoyl}glycine] were 80 nM and “B (2<(TRα/TRβ)<5)”.
On to `Cc1cc(OCC(=O)O)c(C)c(C)c1Cc1ccc(O)c(C2CCCCC2)n1` [Example 7, {4-[(6-cyclohexyl-5-hydroxypyridin-2-yl)methyl]-2,3,5-trimethylphenoxy}acetic acid], for which the EC50 in assay [1] was 1 nM. Further, the “selectivity (TRα/TRβ)” value in assay [2] is “A (5<(TRα/TRβ))”.
In the case of `Cc1cc(OCc2noc(=O)[nH]2)c(C)c(C)c1Cc1ccc(O)c(C(C)C)n1` [Example 31, 3-({4-[(5-hydroxy-6-isopropylpyridin-2-yl)methyl]-2,3,5-trimethylphenoxy}methyl)-1,2,4-oxadiazol-5(4H)-one], the EC50 in assay [1] is 0.2 nM. Also, the “selectivity (TRα/TRβ)” value in assay [2] is given as “B (2<(TRα/TRβ)<5)”.
Taken in the same sequence, the figures for `Cc1cc(OCC(=O)O)c(C)c(C)c1Oc1ccc(O)c(C2CCCCC2)n1` [Example 10, {4-[(6-cyclohexyl-5-hydroxypyridin-2-yl)oxy]-2,3,5-trimethylphenoxy}acetic acid] were 30 nM and “B (2<(TRα/TRβ)<5)”.
The like results for `Cc1cc(NC(=O)C(=O)O)c(C)c(C)c1Cc1ccc(O)c(C2CCCCC2)n1` [Example 20, ({4-[(6-cyclohexyl-5-hydroxypyridin-2-yl)methyl]-2,3,5-trimethylphenyl}amino)(oxo)acetic acid] were, in that order, 4 nM and “C (2>(TRα/TRβ))”.
The like results for `CCc1cc(OCC(=O)O)c(C)c(C)c1Cc1ccc(O)c(-c2cccc(F)c2)n1` [Example 269, (5-ethyl-4-{[6-(3-fluorophenyl)-5-hydroxypyridin-2-yl]methyl}-2,3-dimethylphenoxy)acetic acid] were, in that order, 0.7 nM and “A (5<(TRα/TRβ))”.
As for `Cc1cc(OC(C)(C)C(=O)O)cc(C)c1Cc1ccc(O)c(C2CCCCC2)n1` [Example 16, 2-{4-[(6-cyclohexyl-5-hydroxypyridin-2-yl)methyl]-3,5-dimethylphenoxy}-2-methylpropanoic acid], the EC50 in assay [1] worked out at 20 nM. Further, in assay [2], the “selectivity (TRα/TRβ)” value is given as “B (2<(TRα/TRβ)<5)”.
Taken in the same sequence, the figures for `Cc1cc(OC2(C(=O)O)CC2)cc(C)c1Cc1ccc(O)c(C2CCCCC2)n1` [Example 18, 1-{4-[(6-cyclohexyl-5-hydroxypyridin-2-yl)methyl]-3,5-dimethylphenoxy}cyclopropanecarboxylic acid] were 2000 nM and “C (2>(TRα/TRβ))”.
Taken in the same sequence, the figures for `Cc1cc(OCC(=O)O)cc(C)c1Cc1ccc(O)c(C2CCCCC2)n1` [Example 2, {4-[(6-cyclohexyl-5-hydroxypyridin-2-yl)methyl]-3,5-dimethylphenoxy}acetic acid] were 2 nM and “B (2<(TRα/TRβ)<5)”.
The like results for `Cc1cc(OCc2noc(=O)[nH]2)c(C)c(C)c1Cc1ccc(O)c(C2CCCCO2)n1` (stereo not shown) [Example 35, 3-[(4-{[5-hydroxy-6-(tetrahydro-2H-pyran-2-yl)pyridin-2-yl]methyl}-2,3,5-trimethylphenoxy)methyl]-1,2,4-oxadiazol-5(4H)-one] were, in that order, 9 nM and “B (2<(TRα/TRβ)<5)”.
Take `Cc1cc(OCC(=O)O)c2c(c1Cc1ccc(O)c(C3CCCCC3)n1)CCC2` [Example 152, ({7-[(6-cyclohexyl-5-hydroxypyridin-2-yl)methyl]-6-methyl-2,3-dihydro-1H-inden-4-yl}oxy)acetic acid]: the EC50 in assay [1] was found to be 5 nM. Moreover, in assay [2], the “selectivity (TRα/TRβ)” value is on record as “B (2<(TRα/TRβ)<5)”.
Taken in the same sequence, the figures for `Cc1cc(OCC(=O)O)c(C#N)c(C)c1Cc1ccc(O)c(C2CCCCC2)n1` [Example 44, {2-cyano-4-[(6-cyclohexyl-5-hydroxypyridin-2-yl)methyl]-3,5-dimethylphenoxy}acetic acid] were 200 nM and “B (2<(TRα/TRβ)<5)”.
With `Cc1cc(OCc2noc(=O)[nH]2)c(C)c(C)c1Cc1ccc(O)c(C2CCCCC2)n1` [Example 34, 3-({4-[(6-cyclohexyl-5-hydroxypyridin-2-yl)methyl]-2,3,5-trimethylphenoxy}methyl)-1,2,4-oxadiazol-5(4H)-one], the EC50 in assay [1] amounted to 0.4 nM. The “selectivity (TRα/TRβ)” value in assay [2] is reported as “B (2<(TRα/TRβ)<5)”.
Taken in the same sequence, the figures for `Cc1cc(OCc2noc(=O)[nH]2)cc(C)c1Cc1ccc(O)c(-c2ccc3ccccc3c2)n1` [Example 29, 3-[(4-{[5-hydroxy-6-(2-naphthyl)pyridin-2-yl]methyl}-3,5-dimethylphenoxy)methyl]-1,2,4-oxadiazol-5(4H)-one] were 2 nM and “A (5<(TRα/TRβ))”.
`Cc1cc(OCC(=O)O)c(C)c(C)c1Cc1ccc(O)c(C(=O)N(C)CCc2ccccc2)n1` [Example 80]: the EC50 in assay [1] was 100 nM. Also, in assay [2], the “selectivity (TRα/TRβ)” value is recorded as “B (2<(TRα/TRβ)<5)”.
Regarding `Cc1cc(OCc2noc(=O)[nH]2)c(C)c(C)c1Cc1ccc(O)c(C2CCCC2)n1` [Example 32, 3-({4-[(6-cyclopentyl-5-hydroxypyridin-2-yl)methyl]-2,3,5-trimethylphenoxy}methyl)-1,2,4-oxadiazol-5(4H)-one], the EC50 in assay [1] worked out at 0.4 nM. The “selectivity (TRα/TRβ)” value in assay [2] is “B (2<(TRα/TRβ)<5)”.

For the origin of these results see US8791266B2, “Thyroid hormone β receptor agonist” (Mitsubishi Tanabe Pharma Corporation, priority 2009, dated 2014).
